These results are taken from patent US20250282726A1, “5-BROMO-2-HYDROXY-N'-[(1E)-1-(PYRIDIN-2-YL) ETHYLIDENE]BENZOHYDRAZIDE AS AN ANTI-CANCER AND ANTIMICROBIAL AGENT” (KING SAUD UNIVERSITY, priority 2024, published 2025).

Holding throughout (format): cell-based
Test [1] deals with Aspergillus niger (carsm-3). Put plainly: Antimicrobial study, diameter of inhibition zone. The conditions noted are these: Fungi. The source says:
(§1) Two gram-positive Staphylococcus aureus (cars-2) and Bacillus Megnaterium, two gram-negative Escherichia coli (carsgn-2) and Salmonella Typhi (JCM-1652) bacteria, and two fungal strains Trichoderma harzianum (carsm-2) and Aspergillus niger (carsm-3) were used in this study.

Test [2] has as its system Trichoderma harzianum (carsm-2). Put plainly: Antimicrobial study, diameter of inhibition zone. The settings on record: Fungi.
Text: as §1

In a further test the test system is Bacillus Megnaterium. In words: Antimicrobial study, diameter of inhibition zone. The conditions noted are these: for Diameter of inhibition zones, B. megnaterium: Gram (+) bacteria. As for the experimental part: (§2) Initially, compound L was tested against some Gram-negative and Gram-positive bacteria and the fungus strain.
as §1

For test [3], the system named is Escherichia coli (carsgn-2). In words: Antimicrobial study, diameter of inhibition zone. The conditions noted are these: for Diameter of inhibition zones, E. coli: Gram (−) bacteria. As for the experimental part:
as §2, §1

Test [4] deals with Salmonella Typhi (JCM-1652). Put plainly: Antimicrobial study, diameter of inhibition zone. The conditions noted are these: for Diameter of inhibition zones, S. typhi: Gram (−) bacteria. As for the experimental part:
as §2, §1

The subject of test [5] is Staphylococcus aureus (cars-2). In words: Antimicrobial study, diameter of inhibition zone. The conditions noted are these: for Diameter of inhibition zones, S. aureus: Gram (+) bacteria. As for the experimental part: as §2, §1
The test system of test [6] is hepatocellular carcinoma (HepG2). Put plainly: MTT in vitro cytotoxicity assay. The conditions noted are these: Homo sapiens, read-out: % cell viability. As for the experimental part: (§3) Two human cancer cell lines were utilized in the cytotoxicity assay. They were lung cancer (A549) and hepatocellular carcinoma (HepG2). A549 and HepG2 cells were cultured in a DMEM medium supplemented with 10% Fetal Bovine Serum (FBS), and 1% Antibiotic-Antimycotic at 37° C., with 5% CO2 in a 75 cm^2 tissue culture flask.
(§4) The conversion of yellow MTT to purple formazan crystals by mitochondrial dehydrogenase of viable cell enzymes was used to assess the magnitude of cellular cytotoxicity exerted by different concentrations of L as explained earlier Kazi et al. 2023 and modified by Kumar et al. 2022. Briefly, cancer cells were plated in 96-well plates (2×10^3 cells/well) in full cell growth medium and incubated for 24 h at 37° C. under a humidified atmosphere of 5% CO2. The cell medium was then replaced by a cell growth medium containing 5% FBS (DMEM medium), containing different concentrations of L. This experiment was performed in two batches. In the first batch, concentrations of L were 1.95, 3.9, 7.8, 15.6, 31.25, 62.5, 125 and 250 μg/ml with control (without any treatment). In the second batch, concentrations of L were 0.078, 0.156, 0.312, 0.625, 1.25, 2.5, 5.0, and 10.0 μg/mL with control (without any treatment). After 72 hours of incubation, medium in all test and control wells was substituted by 100 µL/well of MTT solution (0.5 mg/mL, in PBS) and incubated for a further 3 h at 37° C. Afterwards, the MTT solution was replaced with 100 μL isopropanol/well to dissolve the purple formazan crystals formed at the bottom of the wells, with shaking for at least 2 h at room temperature in dark. Subsequently, the color intensity in the wells was measured at 549 nm with a Bio-Tek microplate reader (ELX 800; Bio-Tek Instruments, Winooski, VT, USA). The results were analyzed in triplicates and the viability percentage was calculated. The data are presented as the percentages of viable cells in the test wells compared to those of the control group. The following equation was used to calculate the cell viability: […]
(§5) Liver and lung cancer cell lines were used to observe the antiproliferative effects of different concentrations of L as a growth-inhibiting study utilizing MTT-based viability assays. The MTT assay is based on mitochondrial activity. […] The results of both batches are admirable and far better than earlier reported publications. Therefore, we repeated this experiment with lung cancer cell lines and found almost similar results (FIGS. 9 and 10) as were with liver cancer cells.

A further test deals with lung cancer (A549). Put plainly: MTT in vitro cytotoxicity assay. The settings on record: Homo sapiens, lung cancer cells, MTT 72 h. As for the experimental part: as §3, §4, §5

As for `C[C@@H]1[C@H](O)[C@@H](C)/C=C/C=C/C=C/C=C/C=C/C=C/C=C/[C@H](O[C@@H]2O[C@H](C)[C@@H](O)[C@H](N)[C@@H]2O)C[C@@H]2O[C@](O)(C[C@@H](O)C[C@@H](O)[C@H](O)CC[C@@H](O)C[C@@H](O)CC(=O)O[C@H]1C)C[C@H](O)[C@H]2C(=O)O` [Amphotericin-B, reference compound], in test [1], the “Diameter of inhibition zones, A. niger” value is listed as 8.0 mm. In addition, in test [2], the “Diameter of inhibition zones, T. harzianum” value was found to be 17.0 mm.
In the case of `CO/N=C(\C(=O)N[C@@H]1C(=O)N2C(C(=O)O)=C(CSc3nc(=O)c(=O)[nH]n3C)CS[C@H]12)c1csc(N)n1` [Ceftriaxone, reference compound], the “Diameter of inhibition zones, B. megnaterium” value with Bacillus Megnaterium is 50.0 mm. The “Diameter of inhibition zones, E. coli” value in test [3] was determined as 38.0 mm. Also, the “Diameter of inhibition zones, S. typhi” value in test [4] came to 44.0 mm. The “Diameter of inhibition zones, S. aureus” value in test [5] is listed as 40.0 mm.
Consider `C/C(=N\NC(=O)c1cc(Br)ccc1O)c1ccccn1` [Compound L, 5-bromo-2-hydroxy-N′-[(1E)-1-(pyridin-2-yl)ethylidene]benzohydrazide], for which the “Diameter of inhibition zone” value in the test with Bacillus Megnaterium (Bacillus Megaterium) was 20 mm; in test [3] (Escherichia coli), 17 mm; in test [4] (Salmonella typhi), 26 mm; in test [5] (Staphylococcus aureus), 24 mm. In the test on Bacillus Megnaterium, the “Diameter of inhibition zones, B. megnaterium” value is listed as 20 mm. Further, in test [3], the “Diameter of inhibition zones, E. coli” value was determined as 17 mm. Besides, the “Diameter of inhibition zones, S. typhi” value in test [4] came out at 26 mm. Besides, the “Diameter of inhibition zones, S. aureus” value in test [5] was found to be 24 mm. The “Diameter of inhibition zones, A. niger” value in test [1] worked out at 12 mm. The “Diameter of inhibition zones, T. harzianum” value in test [2] is on record as 12 mm. The viability at 0.078 µg/mL in test [6] (HepG2, 72 h) worked out at 34.4%; in the test on lung cancer (A549) (0.078 μg/mL, FIG. 4, read-out: % cell viability), 18.6%. Also, the viability at 1.95 µg/mL was 14.8% in test [6] (HepG2, 72 h) and 18% in the test on lung cancer (A549) (1.95 μg/mL, FIG. 5, read-out: % cell viability). The viability at 0.156 µg/mL in test [6] (HepG2, liver cancer cells, 0.156 μg/mL, MTT 72 h, FIG. 2) stood at 24.4%; with lung cancer (A549) (0.156 μg/mL, FIG. 4, read-out: % cell viability), 13.2%. Also, the viability at 0.312 µg/mL in test [6] (HepG2, liver cancer cells, 0.312 μg/mL, MTT 72 h, FIG. 2) is 28%; in the test with lung cancer (A549) (0.312 μg/mL, FIG. 4, read-out: % cell viability) it was 12.8%. Besides, the viability at 0.625 µg/mL in test [6] (HepG2, liver cancer cells, 0.625 μg/mL, MTT 72 h, FIG. 2) is 20.3%; in the test on lung cancer (A549) (0.625 μg/mL, FIG. 4, read-out: % cell viability), 12.3%. For the same molecule, the viability at 1.25 µg/mL in test [6] (HepG2, liver cancer cells, 1.25 μg/mL, MTT 72 h, FIG. 2) was determined as 20.2%; with lung cancer (A549) (1.25 μg/mL, FIG. 4, read-out: % cell viability), 12.1%. For the same molecule, the viability at 2.5 µg/mL was found to be 12.7% in test [6] (HepG2, liver cancer cells, 2.5 μg/mL, MTT 72 h, FIG. 2) and 11.7% in the test on lung cancer (A549) (2.5 μg/mL, FIG. 4, read-out: % cell viability). In addition, the viability at 3.9 µg/mL is 12.2% in test [6] (HepG2, liver cancer cells, 3.9 μg/mL, MTT 72 h, FIG. 3) and 16.7% with lung cancer (A549) (3.9 μg/mL, FIG. 5, read-out: % cell viability). Moreover, the viability at 5 µg/mL in test [6] (HepG2, liver cancer cells, 5.0 μg/mL, MTT 72 h, FIG. 2) was 10.9%; with lung cancer (A549) (5.0 μg/mL, FIG. 4, read-out: % cell viability), 11%. The viability at 7.8 µg/mL in test [6] (HepG2, liver cancer cells, 7.8 μg/mL, MTT 72 h, FIG. 3) was found to be 9.57%; in the test on lung cancer (A549) (7.8 μg/mL, FIG. 5, read-out: % cell viability), 12.5%. The viability at 10 µg/mL in test [6] (HepG2, liver cancer cells, 10.0 μg/mL, MTT 72 h, FIG. 2) turned out to be 10.4%; with lung cancer (A549) (10.0 μg/mL, FIG. 4, read-out: % cell viability), 11.1%. Besides, the viability at 15.6 µg/mL in test [6] (HepG2, liver cancer cells, 15.6 μg/mL, MTT 72 h, FIG. 3) worked out at 8.96%; in the test on lung cancer (A549) (15.6 μg/mL, FIG. 5, read-out: % cell viability) it was 11.8%. Further, the viability at 31.25 µg/mL in test [6] (HepG2, liver cancer cells, 31.25 μg/mL, MTT 72 h, FIG. 3) was 9.09%; in the test on lung cancer (A549) (31.25 μg/mL, FIG. 5, read-out: % cell viability), 11.7%. Further, the viability at 62.5 µg/mL is 8.86% in test [6] (HepG2, liver cancer cells, 62.5 μg/mL, MTT 72 h, FIG. 3) and 11.4% with lung cancer (A549) (62.5 μg/mL, FIG. 5, read-out: % cell viability). The viability at 125 µg/mL was 9.34% in test [6] (HepG2, liver cancer cells, 125 μg/mL, MTT 72 h, FIG. 3) and 11.6% in the test with lung cancer (A549) (125 μg/mL, FIG. 5, read-out: % cell viability). Besides, the viability at 250 µg/mL was found to be 9.38% in test [6] (HepG2, liver cancer cells, 250 μg/mL, MTT 72 h, FIG. 3) and 11.6% in the test on lung cancer (A549) (250 μg/mL, FIG. 5, read-out: % cell viability).

Broadly, the viability is a read-out of living cells in per cent, often relative to untreated cells.
